Patent US8609725B2, “Method of using beta-hydroxy-beta-methylbutyrate for reducing tumor growth rate” (Abbott Laboratories, priority 2004, dated 2013)

Key:
[1] = system: 20S proteasome α-subunits; assay: Western blotting of 20S proteasome α-subunits in gastrocnemius muscle of MAC16 mice; assay type: in vivo, NMRI mice
[2] = system: 20S proteasome β-subunits; assay: Western blotting of 20S proteasome β-subunits in gastrocnemius muscle of MAC16 mice; assay type: in vivo, NMRI mice
I-κBα = assay: PIF-induced degradation of I-κBα in murine myotubes; assay type: cell-based; conditions: 50 μM HMB
Method: (§1) For Western blot analysis, cytosolic protein (2 to 5 μg) obtained for the above assay were resolved on 10% SDS-PAGE and transferred to 0.45 μm nitrocellulose membrane, which had been blocked with 5% Marvel in PBS, at 4° C. overnight. The primary antibodies were used at a dilution of 1:100 (anti-actin and PKCα); 1:500 (anti-ERK1 and 2); 1:1000 (anti-20S proteasome β-subunit and I-κBα); 1:1500 (anti-20S proteasome α-subunit) or 1:5000 (anti-p42), while the secondary antibodies were used at a dilution of 1:2000. Incubation was carried out for 2 h at room temperature and development was by ECL. Loading was quantitated by actin concentration. The in vitro study described in Example III above also evaluated the effect of HMB on molecules that are key mediators in the pathway of inflammation. This experiment was conducted as described in Example III.

[3] = system: ubiquitin-conjugating enzyme, E214k; assay: Western blotting of E214k in gastrocnemius muscle of MAC16 mice; assay type: in vivo, NMRI mice; conditions: HMB 0.25 g/kg, EPA 0.6 g/kg or combination, 3 days
Method: For Western blotting samples of soleus muscle cytosolic protein (2 to 5 μg), obtained from the above assay, were resolved on 10% SDS-PAGE and transferred to 0.45 μm nitrocellulose membrane (HybondTM, Amersham Life Science Products, Bucks, United Kingdom), which had been blocked with 5% Marvel in PBS. The primary antibodies for MSS1 and p42 were used at a dilution of 1:5000, for 20S proteasome α-subunits at 1:1500 and for β-subunits at 1:1000, while the antibody for […] was used at a dilution of 1:500. The secondary antibodies were used at a dilution of 1:2000. Mouse monoclonal antibodies to 20S proteasome subunits a 1, 2, 3, 5, 6 and 7 (clone MCP 231), 20S proteasome subunit β3 (HC10), 19S regulator ATPase subunit […]1; clone MSS1-104) and 19S regulator ATPase subunit Rpt 4 ([…], p42; clone p42-23) were purchased from Affiniti Research Products, Exeter, United Kingdom. Rabbit polyclonal antisera to ubiquitin-conjugating enzyme E2 (anti-UBC2 antibody) was a gift from Dr. Simon Wing, McGill University, Montreal, Quebec, Canada. Peroxidase-conjugated goat anti-rabbit and rabbit anti-mouse secondary antibodies were from Dako Ltd., Cambridge, United Kingdom. Incubation was carried out for 2 h at room temperature, and developed by chemiluminescence (ECL; Amersham).

PKCα = molecular target: T1, PKCα (Mus musculus, UniProt P20444); assay: PIF-stimulated translocation of PKCα from cytoplasm to plasma membrane in murine myotubes; assay type: cell-based
T1 construct: PIF stimulates translocation of PKCα from the cytoplasm to the plasma membrane; endogenous in cells; host or cells: murine myotubes (C2C12)
Method: as §1, with “concentration.” for “concentration. The in vitro study described in Example III above also evaluated the effect of HMB on molecules that are key mediators in the pathway of inflammation. This experiment was conducted as described in Example III.”
The in vitro study described in Example III above also evaluated the effect of HMB on molecules that are key mediators in the pathway of inflammation. This experiment was conducted as described in Example III.

[4] = system: β subunits of the proteasome; assay: 'Chymotrypsin-like' enzyme activity in PIF-treated murine myotubes; assay type: cell-based
Method: The functional activity of the β subunits of the proteasome was determined as the ‘chymotrypsin-like’ enzyme activity obtained fluorimetrically according to the method of Orino, E. et al. ATP-dependent reversible association of proteasomes with multiple protein components to form 26S complexes that degrade ubiquitinated proteins in human HL-60 cells. FEBS Lett., 284: 206-210, 1991. Myotubes were exposed to PIF for 24 h with or without EPA or HMB added 2 h prior to PIF and enzyme activity was determined in a supernatant fraction (Whitehouse, A. S. et al. Increased expression of the ubiquitin-proteasome pathway in murine myotubes by proteolysis-inducing factor (PIF) is associated with activation of the transcription factor NF-κB. Br. J. Cancer, 89: 1116-1122, 2003) by the release of aminomethyl coumarin (AMC) from succinyl-LLVY-AMC (0.1 mM) in the presence or absence of the specific proteasome inhibitor lactacystin (10 μM) (Fenteany, G. et al. Lactacystin, proteasome function and cell fate. J. Biol. Chem., 273: 8545-8548, 1998). Only lactacystin suppressible activity was considered to be proteasome specific. Activity was adjusted for the protein concentration of the sample, determined using the Bradford assay (Sigma Chemical Co., Dorset, United Kingdom) using bovine serum albumin as standard.

phospholipase A (PLA) = assay: Arachidonic acid release / PLA activation; assay type: cell-based, murine; conditions: mechanism statement
Method: For measurement of arachidonic acid release, myotubes in six-well multi dishes containing 2 ml DMEM with 2% HS were labeled for 24 h with 10 μM arachidonic acid (containing 1 μCi of [^3H] arachidonate/ml) (Smith, H. et al. Effect of a cancer cachectic factor on protein synthesis/degradation in murine C2C12 myoblasts: Modulation by eicosapentaenoic acid. Cancer Res., 59: 5507-5513, 1999). Cells were then washed extensively with PBS to remove traces of unincorporated [^3H] arachidonate and either EPA or HMB was added 2 h prior to PIF. After a further 24 h 1 ml of medium was removed to determine the radioactivity released.

[5] = HMB 0.25 g/kg, EPA 0.6 g/kg or combination, 3 days

With CC(C)(O)CC(=O)O [HMB, beta-hydroxy-beta-methylbutyric acid] the “expression of 20S proteasome α-subunits” value [1, 5] was “attenuated”, the “reduction of protein expression of 20S α-subunits” value ([1]; summary of Examples I-IV) was “at least 50%” and the “expression of 20S proteasome β-subunits” value [2, 5] was “attenuated”. The “reduction of protein expression of 20S β-subunits” value ([2]; summary of Examples I-IV) was “at least 50%”, the “attenuation of I-κBα degradation in the presence of PIF” value (I-κBα) was “effectively attenuate” and the “expression of E214k” value [3] was “reduced”. For the same compound, the “attenuation of PIF-stimulated translocation of PKCα” value (PKCα; 25 μM HMB) was “less effective”, the “attenuation of PIF-stimulated translocation of PKCα” value (PKCα; 50 μM) was “effectively attenuated” and the “attenuation of PIF-induced increase in 'chymotrypsin-like' enzyme activity” value ([4]; 25 μM HMB) was “completely attenuated”. The “attenuation of PIF-induced increase in 'chymotrypsin-like' enzyme activity” value ([4]; 50 μM) was “completely attenuated” and the “activation of PLA or release of AA” value (phospholipase A (PLA)) was “not preventing”.
